Data taken from US20240246942A1, “KINASE INHIBITORS FOR THE TREATMENT OF NEURODEGENERATIVE DISEASES” (priority 2020, published 2024).

Columns and labels:
Assay in all cases: biochemical
[1] = target: T1, panel of 374 wild-type kinases (Homo sapiens, UniProt P43403); conditions: read-out: % Enzyme Activity (relative to DMSO controls), kinase ZAP70
T1 construct: purchased Reaction Biology Corporation
T1 sequence (P43403 1-619): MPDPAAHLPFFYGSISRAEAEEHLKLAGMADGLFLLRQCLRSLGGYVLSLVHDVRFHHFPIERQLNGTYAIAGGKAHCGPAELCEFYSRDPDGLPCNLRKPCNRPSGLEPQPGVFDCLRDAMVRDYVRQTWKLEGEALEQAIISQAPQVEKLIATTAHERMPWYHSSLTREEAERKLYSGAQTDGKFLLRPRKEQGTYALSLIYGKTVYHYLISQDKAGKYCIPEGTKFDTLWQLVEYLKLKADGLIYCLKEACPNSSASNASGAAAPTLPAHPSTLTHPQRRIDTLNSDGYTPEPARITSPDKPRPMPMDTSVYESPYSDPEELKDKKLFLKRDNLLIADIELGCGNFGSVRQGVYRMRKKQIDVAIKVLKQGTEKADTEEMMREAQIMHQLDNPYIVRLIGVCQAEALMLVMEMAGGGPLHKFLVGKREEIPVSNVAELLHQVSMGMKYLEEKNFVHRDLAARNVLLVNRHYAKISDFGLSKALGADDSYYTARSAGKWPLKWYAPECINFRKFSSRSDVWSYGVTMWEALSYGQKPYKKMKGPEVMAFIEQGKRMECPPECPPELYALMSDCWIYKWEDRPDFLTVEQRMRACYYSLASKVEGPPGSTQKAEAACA

[2] = target: T2, panel of 374 wild-type kinases (Homo sapiens, UniProt O95382); conditions: read-out: % Enzyme Activity (relative to DMSO controls), MEKK6
T2 construct: purchased Reaction Biology Corporation
T2 sequence (O95382 1-1288): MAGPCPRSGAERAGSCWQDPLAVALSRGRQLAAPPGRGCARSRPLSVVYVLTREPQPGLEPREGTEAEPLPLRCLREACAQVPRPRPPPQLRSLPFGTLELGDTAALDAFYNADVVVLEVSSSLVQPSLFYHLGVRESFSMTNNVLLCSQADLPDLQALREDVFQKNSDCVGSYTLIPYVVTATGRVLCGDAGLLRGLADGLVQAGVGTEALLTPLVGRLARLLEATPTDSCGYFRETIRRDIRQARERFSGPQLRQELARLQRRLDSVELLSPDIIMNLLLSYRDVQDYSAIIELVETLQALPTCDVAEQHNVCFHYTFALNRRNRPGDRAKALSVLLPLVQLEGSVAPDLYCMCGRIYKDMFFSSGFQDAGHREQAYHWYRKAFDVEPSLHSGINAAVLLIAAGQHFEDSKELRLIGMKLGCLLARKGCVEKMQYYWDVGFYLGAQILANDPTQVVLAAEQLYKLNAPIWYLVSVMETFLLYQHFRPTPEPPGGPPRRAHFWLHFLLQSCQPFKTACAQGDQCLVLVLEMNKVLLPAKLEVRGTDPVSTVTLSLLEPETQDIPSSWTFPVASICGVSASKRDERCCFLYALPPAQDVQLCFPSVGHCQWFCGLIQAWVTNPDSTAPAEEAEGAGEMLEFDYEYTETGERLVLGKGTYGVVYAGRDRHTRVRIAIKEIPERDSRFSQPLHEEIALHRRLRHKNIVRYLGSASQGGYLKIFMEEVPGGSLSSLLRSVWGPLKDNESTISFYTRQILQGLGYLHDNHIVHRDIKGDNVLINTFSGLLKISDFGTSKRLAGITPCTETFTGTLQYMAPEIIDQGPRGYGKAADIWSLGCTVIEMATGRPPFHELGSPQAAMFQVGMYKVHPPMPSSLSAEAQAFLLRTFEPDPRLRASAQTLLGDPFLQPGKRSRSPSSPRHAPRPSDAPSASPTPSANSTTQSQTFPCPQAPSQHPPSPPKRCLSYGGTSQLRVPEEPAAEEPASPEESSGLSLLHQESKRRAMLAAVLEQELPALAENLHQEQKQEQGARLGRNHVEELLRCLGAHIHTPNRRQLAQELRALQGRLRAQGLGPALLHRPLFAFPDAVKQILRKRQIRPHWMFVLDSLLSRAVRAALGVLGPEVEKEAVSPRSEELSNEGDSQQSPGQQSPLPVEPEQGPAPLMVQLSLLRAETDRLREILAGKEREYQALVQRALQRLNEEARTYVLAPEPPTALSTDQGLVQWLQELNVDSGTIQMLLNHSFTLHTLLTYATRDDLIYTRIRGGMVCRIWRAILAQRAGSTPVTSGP

[3] = target: T3, panel of 374 wild-type kinases (Homo sapiens, UniProt Q9HBH9); conditions: read-out: % Enzyme Activity (relative to DMSO controls), MNK2
T3 construct: purchased Reaction Biology Corporation
T3 sequence (Q9HBH9 whole entry): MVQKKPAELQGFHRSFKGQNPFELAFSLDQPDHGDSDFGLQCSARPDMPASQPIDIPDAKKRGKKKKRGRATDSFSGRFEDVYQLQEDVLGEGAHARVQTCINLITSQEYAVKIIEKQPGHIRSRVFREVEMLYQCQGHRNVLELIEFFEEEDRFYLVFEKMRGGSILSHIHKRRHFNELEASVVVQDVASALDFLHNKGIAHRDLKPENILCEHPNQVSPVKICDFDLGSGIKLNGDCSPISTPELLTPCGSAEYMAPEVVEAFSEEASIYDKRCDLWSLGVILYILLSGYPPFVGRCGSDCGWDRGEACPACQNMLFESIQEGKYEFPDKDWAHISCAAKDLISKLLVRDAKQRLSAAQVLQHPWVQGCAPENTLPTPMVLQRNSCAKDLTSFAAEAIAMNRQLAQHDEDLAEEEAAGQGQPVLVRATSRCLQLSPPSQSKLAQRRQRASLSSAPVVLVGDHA

[4] = target: T4, panel of 374 wild-type kinases (Homo sapiens, UniProt Q86Z02); conditions: read-out: % Enzyme Activity (relative to DMSO controls), HIPK1
T4 construct: purchased Reaction Biology Corporation
T4 sequence (Q86Z02 whole entry): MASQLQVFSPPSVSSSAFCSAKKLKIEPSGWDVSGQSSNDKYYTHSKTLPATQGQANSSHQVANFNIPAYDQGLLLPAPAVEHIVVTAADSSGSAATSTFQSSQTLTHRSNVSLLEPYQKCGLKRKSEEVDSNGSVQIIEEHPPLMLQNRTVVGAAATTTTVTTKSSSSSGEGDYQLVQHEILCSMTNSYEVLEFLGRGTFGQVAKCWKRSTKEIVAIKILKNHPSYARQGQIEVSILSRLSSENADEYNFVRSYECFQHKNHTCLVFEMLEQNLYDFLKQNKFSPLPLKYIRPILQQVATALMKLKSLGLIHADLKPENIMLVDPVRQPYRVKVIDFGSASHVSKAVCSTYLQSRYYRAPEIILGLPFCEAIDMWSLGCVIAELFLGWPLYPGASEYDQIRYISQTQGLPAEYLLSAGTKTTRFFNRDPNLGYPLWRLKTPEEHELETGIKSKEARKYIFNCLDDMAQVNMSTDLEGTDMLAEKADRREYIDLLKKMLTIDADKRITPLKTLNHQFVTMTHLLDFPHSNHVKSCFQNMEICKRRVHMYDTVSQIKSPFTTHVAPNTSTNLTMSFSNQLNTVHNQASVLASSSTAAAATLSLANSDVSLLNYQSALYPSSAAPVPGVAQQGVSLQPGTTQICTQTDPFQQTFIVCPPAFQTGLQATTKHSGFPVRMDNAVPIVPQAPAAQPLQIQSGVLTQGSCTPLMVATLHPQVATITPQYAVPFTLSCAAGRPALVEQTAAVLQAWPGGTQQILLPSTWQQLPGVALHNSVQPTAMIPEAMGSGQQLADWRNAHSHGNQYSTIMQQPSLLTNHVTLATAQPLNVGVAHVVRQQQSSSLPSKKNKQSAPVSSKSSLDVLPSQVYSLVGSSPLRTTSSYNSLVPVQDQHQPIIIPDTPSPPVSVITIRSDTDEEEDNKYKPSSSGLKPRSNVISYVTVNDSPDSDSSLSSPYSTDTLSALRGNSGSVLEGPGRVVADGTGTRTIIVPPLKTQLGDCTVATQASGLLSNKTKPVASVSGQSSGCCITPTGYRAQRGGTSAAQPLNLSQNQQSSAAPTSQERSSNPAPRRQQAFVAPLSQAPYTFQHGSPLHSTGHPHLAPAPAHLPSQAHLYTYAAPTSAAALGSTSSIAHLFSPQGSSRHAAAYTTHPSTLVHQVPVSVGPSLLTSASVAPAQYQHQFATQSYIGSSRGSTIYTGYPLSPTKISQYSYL

Structure (SMILES)	remaining activity at 5 µM [1]	remaining activity at 5 µM [2]	remaining activity at 5 µM [3]	remaining activity at 5 µM [4]	remaining activity at 10 µM ([1]; 10 uM)	remaining activity at 10 µM ([2]; 10 uM)	remaining activity at 10 µM ([3]; 10 uM)	remaining activity at 10 µM ([4]; 10 uM)
O=C(Nc1cnn(-c2csc(C(=O)NC3COC3)c2)c1)Nc1ccccc1Cl [Compound 17, 4-(4-(3-(2-chlorophenyl)ureido)-1H-pyrazol-1-yl)-N-(oxetan-3-yl)thiophene-2-carboxamide]	102%	98.8%	99.3%	96.3%				
Cc1sc(C(=O)NC2COC2)cc1-n1cc(NC(=O)Nc2c(F)cccc2Cl)cn1 [Compound 27, 4-(4-(3-(2-chloro-6-fluorophenyl)ureido)-1H-pyrazol-1-yl)-5-methyl-N-(oxetan-3-yl)thiophene-2-carboxamide]					103%	79.3%	83.4%	116%
O=C(Nc1cnn(-c2csc(C(=O)NC3COC3)c2)c1)Nc1c(F)cccc1Cl [Compound 25, 4-(4-(3-(2-chloro-6-fluorophenyl)ureido)-1H-pyrazol-1-yl)-N-(oxetan-3-yl)thiophene-2-carboxamide]	104%	92.5%	90.8%	91.7%				
